Columns and labels:
Assay type in all cases: cell-based
[1] = system: A549; assay: Inhibition of tumor cell proliferation, CellTiter-Glo, A549; details: compound concentration 50 μM, 72 hours; for cell survival rate (% of control) at 50 µM: Homo sapiens, A549, read-out: Inhibitory activity against proliferation (cell survival rate) A549
Outline: (§1)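 Cells seeded at 2000-10000 cells/well in complete medium at 37° C., 5% CO2; suspension lines dosed immediately, adherent lines after attachment. Viability by CellTiter-Glo luminescence at 72 h; survival % from blank-corrected RLU vs control. Scored at 50 μM: + (60-<90%), ++ (>30-60%), +++ (≤30%).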

[2] = system: BxPC-3; assay: Inhibition of tumor cell proliferation, CellTiter-Glo, BxPC-3; details: compound concentration 50 μM, 72 hours; for cell survival rate (%) at 50 µM: Homo sapiens, BXPC-3, read-out: Inhibitory activity against proliferation (cell survival rate) BxPC-3
Outline: as §1

[3] = system: K562; assay: Inhibition of tumor cell proliferation, CellTiter-Glo, K562; details: compound concentration 50 μM, 72 hours; for cell survival rate (%) at 50 µM: Homo sapiens, K562, read-out: Inhibitory activity against proliferation (cell survival rate) K562
Outline: as §1

[4] = system: SU-DHL6; assay: Inhibition of tumor cell proliferation, CellTiter-Glo, SU-DHL6; details: compound concentration 50 μM, 72 hours; for cell survival rate (% of control) at 50 µM: Homo sapiens, SU-DHL-6, read-out: Inhibitory activity against proliferation (cell survival rate) SU-DHL6
Outline: as §1

[5] = system: RPMI-8226; assay: Inhibition of tumor cell proliferation, CellTiter-Glo, RPMI-8226; details: compound concentration 50 μM, 72 hours; for cell survival rate (% of control) at 50 µM: Homo sapiens, RPMI-8226, read-out: Inhibitory activity against proliferation (cell survival rate) RPMI-8226
Outline: as §1

[6] = system: MDA-MB-453; assay: Inhibition of tumor cell proliferation, CellTiter-Glo, MDA-MB-453; details: compound concentration 50 μM, 72 hours; for cell survival rate (%) at 50 µM: Homo sapiens, MDA-MB-453, read-out: Inhibitory activity against proliferation (cell survival rate) MDA-MB-453
Outline: as §1

SMILES | Inhibitory activity against proliferation (cell survival rate) A549 [1] | Inhibitory activity against proliferation (cell survival rate) BxPC-3 [2] | Inhibitory activity against proliferation (cell survival rate) K562 [3] | Inhibitory activity against proliferation (cell survival rate) SU-DHL6 [4] | Inhibitory activity against proliferation (cell survival rate) RPMI-8226 [5] | Inhibitory activity against proliferation (cell survival rate) MDA-MB-453 [6] | cell survival rate (% of control) at 50 µM [1] | cell survival rate (%) at 50 µM [2] | cell survival rate (%) at 50 µM [3] | cell survival rate (% of control) at 50 µM [4] | cell survival rate (% of control) at 50 µM [5] | cell survival rate (%) at 50 µM [6]
O=C1CCC(N2C(=O)c3cccc(NC(=O)OCCN4CCN(CCNC=C5C(=O)CC(c6ccccc6)CC5=O)CC4)c3C2=O)C(=O)N1 (stereo not drawn) [Compound 80] | +++ (survival rate (%)≤30) | + (60≤survival rate (%)<90) | +++ (survival rate (%)≤30) | + (60≤survival rate (%)<90) | +++ (survival rate (%)≤30) | ++ (30<survival rate (%)≤60) | – | – | – | – | – | –
O=C1CCC(N2Cc3c(NC(=O)c4cccnc4NC=C4C(=O)CC(c5ccccc5)CC4=O)cccc3C2=O)C(=O)N1 (stereo not drawn) [Compound 67] | +++ (survival rate (%)≤30) | + (60≤survival rate (%)<90) | +++ (survival rate (%)≤30) | +++ (survival rate (%)≤30) | +++ (survival rate (%)≤30) | ++ (30<survival rate (%)≤60) | – | – | – | – | – | –
O=C1CCC(N2Cc3c(NC=C4C(=O)CC(c5ccccc5Cc5ccccc5)CC4=O)cccc3C2=O)C(=O)N1 (stereo not drawn) [Compound 35] | +++ (survival rate (%)≤30) | ++ (30<survival rate (%)≤60) | +++ (survival rate (%)≤30) | +++ (survival rate (%)≤30) | +++ (survival rate (%)≤30) | ++ (30<survival rate (%)≤60) | – | – | – | – | – | –
O=C1CCC(N2C(=O)c3cccc(NC=C4C(=O)CC(c5ccccc5)CC4=O)c3C2=O)C(=O)N1 (stereo not drawn) [Compound 2] | ++ (30<survival rate (%)≤60) | + (60≤survival rate (%)<90) | +++ (survival rate (%)≤30) | +++ (survival rate (%)≤30) | ++ (30<survival rate (%)≤60) | + (60≤survival rate (%)<90) | – | – | – | – | – | –
O=C1CCC(N2Cc3c(NC(=O)c4cnc(NC=C5C(=O)CC(c6ccccc6)CC5=O)s4)cccc3C2=O)C(=O)N1 (stereo not drawn) [Compound 62] | ++ (30<survival rate (%)≤60) | ++ (30<survival rate (%)≤60) | + (60≤survival rate (%)<90) | ++ (30<survival rate (%)≤60) | +++ (survival rate (%)≤30) | +++ (survival rate (%)≤30) | – | – | – | – | – | –
O=C1CCC(N2Cc3c(NC=C4C(=O)CC(c5ccccc5C(F)(F)F)CC4=O)cccc3C2=O)C(=O)N1 (stereo not drawn) [Compound 23] | +++ (survival rate (%)≤30) | ++ (30<survival rate (%)≤60) | ++ (30<survival rate (%)≤60) | +++ (survival rate (%)≤30) | +++ (survival rate (%)≤30) | ++ (30<survival rate (%)≤60) | – | – | – | – | – | –
O=C1CCC(N2Cc3c(NC(=O)Nc4ccccc4OC(=O)CCC(=O)OCCN4CCN(CCNC=C5C(=O)CC(c6ccccc6)CC5=O)CC4)cccc3C2=O)C(=O)N1 (stereo not drawn) [Compound 81] | +++ (survival rate (%)≤30) | + (60≤survival rate (%)<90) | +++ (survival rate (%)≤30) | +++ (survival rate (%)≤30) | + (60≤survival rate (%)<90) | ++ (30<survival rate (%)≤60) | – | – | – | – | – | –
O=C1CCC(N2Cc3c(NC(=O)OCc4ccc(NC=C5C(=O)CC(c6ccccc6)CC5=O)nc4)cccc3C2=O)C(=O)N1 (stereo not drawn) [Compound 82] | – | – | – | – | – | – | ≤ 30% | 60 to 90% | 60 to 90% | ≤ 30% | 60 to 90% | 30 to 60%
COCCOCCOc1ccccc1C1CC(=O)C(=CNc2cccc3c2CN(C2CCC(=O)NC2=O)C3=O)C(=O)C1 (stereo not drawn) [Compound 110] | ++ (30<survival rate (%)≤60) | ++ (30<survival rate (%)≤60) | ++ (30<survival rate (%)≤60) | + (60≤survival rate (%)<90) | ++ (30<survival rate (%)≤60) | + (60≤survival rate (%)<90) | – | – | – | – | – | –
O=C1CCC(N2C(=O)c3cccc(NC(=O)OCOC(=O)/C=C/C(=O)N4CCN(CCNC=C5C(=O)CC(c6ccccc6)CC5=O)CC4)c3C2=O)C(=O)N1 (stereo not drawn) [Compound 86] | +++ (survival rate (%)≤30) | ++ (30<survival rate (%)≤60) | +++ (survival rate (%)≤30) | + (60≤survival rate (%)<90) | + (60≤survival rate (%)<90) | +++ (survival rate (%)≤30) | – | – | – | – | – | –
O=C1CCC(N2C(=O)c3cccc(NC(=O)CCC(=O)OCCN4CCN(CCNC=C5C(=O)CC(c6ccccc6)CC5=O)CC4)c3C2=O)C(=O)N1 (stereo not drawn) [Compound 57] | + (60≤survival rate (%)<90) | + (60≤survival rate (%)<90) | + (60≤survival rate (%)<90) | +++ (survival rate (%)≤30) | + (60≤survival rate (%)<90) | + (60≤survival rate (%)<90) | – | – | – | – | – | –
O=C1CCC(N2Cc3c(NC(CO)=C4C(=O)CC(c5ccccc5)CC4=O)cccc3C2=O)C(=O)N1 (stereo not drawn) [Compound 74] | + (60≤survival rate (%)<90) | + (60≤survival rate (%)<90) | + (60≤survival rate (%)<90) | + (60≤survival rate (%)<90) | + (60≤survival rate (%)<90) | + (60≤survival rate (%)<90) | – | – | – | – | – | –
O=C1CCC(N2Cc3c(N/C=C4\C(=O)CCC(c5ccccc5)CC4=O)cccc3C2=O)C(=O)N1 (stereo not drawn) [Compound 124] | – | – | – | – | – | – | 60 to 90% | 30 to 60% | 60 to 90% | 60 to 90% | 60 to 90% | ≤ 30%
O=C1CCC(N2C(=O)c3cccc(NC(=O)CN4CCN(CCNC=C5C(=O)CC(c6ccccc6)CC5=O)CC4)c3C2=O)C(=O)N1 (stereo not drawn) [Compound 55] | +++ (survival rate (%)≤30) | + (60≤survival rate (%)<90) | + (60≤survival rate (%)<90) | +++ (survival rate (%)≤30) | ++ (30<survival rate (%)≤60) | ++ (30<survival rate (%)≤60) | – | – | – | – | – | –
O=C1CCC(N2Cc3c(NC=C4C(=O)CC(c5ncnc6sccc56)CC4=O)cccc3C2=O)C(=O)N1 (stereo not drawn) [Compound 130] | +++ (survival rate (%)≤30) | + (60≤survival rate (%)<90) | ++ (30<survival rate (%)≤60) | +++ (survival rate (%)≤30) | ++ (30<survival rate (%)≤60) | +++ (survival rate (%)≤30) | – | – | – | – | – | –
O=C1CCC(N2Cc3c(NC=C4C(=O)CC(c5cccc6sccc56)CC4=O)cccc3C2=O)C(=O)N1 (stereo not drawn) [Compound 27] | +++ (survival rate (%)≤30) | + (60≤survival rate (%)<90) | +++ (survival rate (%)≤30) | +++ (survival rate (%)≤30) | +++ (survival rate (%)≤30) | +++ (survival rate (%)≤30) | – | – | – | – | – | –
